The nature of assay [1]: Inhibition of apomorphine-induced hyperactivity in mice after peroral administration. It is filed as functional. The settings on record: Mus musculus, po.
Assay [2] relates to Mus musculus. In words: Inhibition of apomorphine-induced climbing behavior in mice, after peroral administration. It is filed as functional. The settings on record: po.
Assay [3] deals with Rattus norvegicus. The assay can be described thus: Percent inhibition of apomorphine-induced stereotypy in rat after an intraperitoneal dose of 50 mg/kg. In kind it is functional. The settings on record: ip.
A short description of assay [4]: Inhibition of apomorphine-induced climbing behavior in mice, after intraperitoneal administration. In kind it is functional. The settings on record: Mus musculus, ip.
The test system of assay [5] is Mus musculus. The assay can be described thus: Inhibition of apomorphine-induced Hyperactivity in mice, after Intraperitoneal administration. It is filed as functional. The settings on record: ip.
Assay [6] has as its system Rattus norvegicus. In words: Inhibition of apomorphine-induced stereotypy in rat, after peroral administration. The settings on record: po. In kind it is functional.
Assay [7] is described as follows: Inhibition of apomorphine-induced hyperactivity behavior in mice, after peroral administration. In kind it is functional. The settings on record: Mus musculus, po.
The test system of assay [8] is Rattus norvegicus. In words: Dose required to induce 50% maximum catalepsy in rat administered perorally. It is filed as functional. The settings on record: po.
Assay [9] in a line: (§1) Inhibition of apomorphine-induced climbing behavior in mice, after Intraperitoneal administration. It is filed as functional. The settings on record: Mus musculus, ip.
Assay [10] has as its system Mus musculus. The assay can be described thus: Inhibition of apomorphine-induced hyperactivity in mice, after peroral administration. The settings on record: po. It is filed as functional.
The species entered for assay [11] is Rattus norvegicus. The assay can be described thus: Dose required to induce 50% maximum catalepsy in rat. It is filed as functional.
The test system of assay [12] is Mus musculus. In words: Inhibition of apomorphine-induced hyperactivity in mice, after peroral administration. The settings on record: po.
Assay [13] relates to Rattus norvegicus. The assay can be described thus: Inhibition of apomorphine-induced stereotypy in rat after peroral administration. The settings on record: po. It is filed as functional.
Assay [14] has as its system Rattus norvegicus. The assay can be described thus: Inhibition of apomorphine-induced stereotypy in Rat, after peroral administration. In kind it is functional. The settings on record: po.
For assay [15], the species on record is Rattus norvegicus. The assay can be described thus: Dose required to induce 50% maximum catalepsy in rat.
In assay [16] the test system is Mus musculus. The description is as §1. It is filed as functional. The settings on record: ip.

`CC1CN(C(=O)c2ccc(F)cc2)CCN1CCCC(=O)c1ccc(F)cc1` (configuration not stated): the ED50 in [1] was > 200 mg/kg; with Mus musculus [2] it was > 200 mg/kg; in assay [4] it was > 50 mg/kg; in the assay with Mus musculus [5], > 50 mg/kg. For the same compound, the inhibition in vivo at 50 mg/kg in the assay with Rattus norvegicus [3] turned out to be 22%.
Take `CC1CN(Cc2ccc(F)cc2)CCN1CCCC(=O)c1ccc(F)cc1` (configuration not stated): the ED50 in assay [1] was > 200 mg/kg; in the assay with Mus musculus [2], > 200 mg/kg; in [4] it was > 50 mg/kg; in the assay with Mus musculus [5] it was 45 mg/kg. Further, the inhibition in vivo at 50 mg/kg with Rattus norvegicus [3] turned out to be 19%.
Turning to `O=C(c1ccc(F)cc1)C1CCN(CCCOc2ccc3c(=O)c(CO)coc3c2)CC1`, the ED50 in the assay on Rattus norvegicus [6] was 35.9 mg/kg; in [7] it was 1.32 mg/kg; in the assay with Rattus norvegicus [8], 14 mg/kg.
`O=C(CCCN1CCC(Cc2ccccc2)CC1)c1ccc(F)cc1`: the median effective dose (ED50) in the assay with Mus musculus [2] is 15.2 mg/kg; in assay [4], 2.85 mg/kg; in the assay on Mus musculus [5], 12.3 mg/kg. The compound further displayed an inhibition in vivo at 50 mg/kg in the assay with Rattus norvegicus [3] of 46%.
On to `O=C(c1ccc(F)cc1)C1CCN(CCCOc2ccc(F)cc2)CC1`, for which the median effective dose (ED50) in [1] came out at 4.9 mg/kg; in the assay on Mus musculus [2] it was 4.3 mg/kg; with Mus musculus [5], 1.15 mg/kg; in assay [9] it was 1.82 mg/kg.
Consider `CC1CN(Cc2ccccc2)CCN1CCCC(O)c1ccc(F)cc1` (configuration not stated), for which the ED50 is > 200 mg/kg in [1], > 200 mg/kg with Mus musculus [2], > 50 mg/kg in assay [4] and 35 mg/kg with Mus musculus [5]. The same compound yielded an inhibition in vivo at 50 mg/kg in the assay on Rattus norvegicus [3] of 16%.
Take `CC1CN(Cc2ccc(F)cc2)CCN1CCCC(O)c1ccc(F)cc1` (configuration not stated): the 50% effective dose (ED50) in assay [1] was > 200 mg/kg; in the assay with Mus musculus [2] it was > 200 mg/kg; in assay [4], 30 mg/kg; in the assay with Mus musculus [5], 50 mg/kg. This compound also gave an inhibition in vivo at 50 mg/kg in the assay on Rattus norvegicus [3] of 48%.
For the compound `CC1CN(C(=O)c2ccc(F)cc2)CCN1CCCC(O)c1ccc(F)cc1` (configuration not stated), the ED50 is > 200 mg/kg in assay [1], > 200 mg/kg with Mus musculus [2], > 50 mg/kg in assay [4] and > 50 mg/kg in the assay on Mus musculus [5]. In addition, the inhibition in vivo at 50 mg/kg in the assay with Rattus norvegicus [3] was found to be 0%.
With `CC1CN(Cc2ccccc2)CCN1CCCC(=O)c1ccc(F)cc1` (configuration not stated), the median effective dose (ED50) in the assay with Mus musculus [2] is > 200 mg/kg; in assay [4], 28.2 mg/kg; with Mus musculus [5] it was 30 mg/kg; in the assay on Mus musculus [10], > 200 mg/kg. Besides, at 50 mg/kg the inhibition in vivo in the assay with Rattus norvegicus [3] was 30%.
Take `CN1CCN(C2=Nc3cc(Cl)ccc3Nc3ccccc32)CC1` [CLOZAPINE]: the ED50 was 107 mg/kg in the assay filed under Rattus norvegicus [11], 11 mg/kg in the assay with Mus musculus [12], 85.3 mg/kg with Rattus norvegicus [13] and 7.7 mg/kg in [9].
As to `O=C(CCCN1CCC(O)(c2ccc(Cl)cc2)CC1)c1ccc(F)cc1` [HALOPERIDOL], the ED50 in the assay listed under Rattus norvegicus [11] was 2.5 mg/kg; in the assay on Mus musculus [12], 0.56 mg/kg; in the assay with Rattus norvegicus [14] it was 1.95 mg/kg; in assay [9], 0.21 mg/kg.
Turning to `CCN1CCC[C@H]1CNC(=O)c1c(OC)ccc(Br)c1OC` [REMOXIPRIDE], the ED50 in the assay on Rattus norvegicus [6] is 48.7 mg/kg; in [4] it was 5.2 mg/kg; in assay [7], 11.1 mg/kg; in the assay with Rattus norvegicus [8] it was 64.3 mg/kg.
Consider `Cc1nc2n(c(=O)c1CCN1CCC(c3noc4cc(F)ccc34)CC1)CCCC2` [RISPERIDONE], for which the 50% effective dose (ED50) in the assay listed under Rattus norvegicus [15] was 5 mg/kg; in the assay with Mus musculus [2] it was 0.74 mg/kg; in the assay on Rattus norvegicus [14] it was 3.8 mg/kg; with Mus musculus [16] it was 0.2 mg/kg.

The values above are taken from ChEMBL document CHEMBL1129248, “7-[3-(1-piperidinyl)propoxy]chromenones as potential atypical antipsychotics” (1996).
